Biological target: T1, HIV-integrase (Human immunodeficiency virus type 1 group M subtype B, UniProt P12497)
T1 construct: Recombinant integrase (0.26 ng) was incubated with the beads
Test: HIV-Integrase Inhibition Activity (SPA strand transfer assay)
Format: biochemical
Settings: recombinant integrase, SPA beads, P33 labeled target DNA; read-out: Activity (IC50 class, HIV-integrase inhibition)
Experimental: HIV-Integrase InhibitionActivity. To evaluate in-vitro activity against HIV-integrase, 5 pmole of biotin labeled substrate DNA was bound to 100 μg of Streptavidin coated PVT SPA beads (Amersham Pharmacia Biotech). Recombinant integrase (0.26 ng) was incubated with the beads for 90 min at 37° C. Unbound enzyme was removed by washing the complex followed by addition of inhibitors and 0.1 fmol of P33 labeled target DNA. The reaction was stopped by adding EDTA to a final concentration of 10 mM. Samples were counted in TopCountNXT (Packard) and the CPM was used as a measure of integration. The reaction condition was as described in A. Engelman and R. Craigie, J. Virol. 69, 5908-5911 (1995). The sequences of substrate and target DNA were described in Nucleic Acid Research 22, 1121-1122 (1994). Activity equal to A refers to a compound having IC50=0.002 to 0.10 μM while B and C denote compounds having IC50=0.1 to 1.0 μM and IC50≧1.0 μM respectively.

Molecule	IC50 [nM]
Pyrimido[2,1-c][1,4]oxazine-2- carboxamide, N-[(2,5-dimethyl-3- furanyl)methyl]-4,6,7,9- tetrahydro-3-hydroxy-9,9- dimethyl-4-oxo- [Example 44]	2 to 100
Pyrimido[2,1-c][1,4]oxazine-2- carboxamide, N-(1,2-benzisoxazol- 3-ylmethyl)-4,6,7,9-tetrahydro-3- hydroxy-9,9-dimethyl-4-oxo- [Example 59]	2 to 100
Pyrimido[2,1-c][1,4]oxazine-2- carboxamide, N-[(4-chloro-1- ethyl-1H-pyrazol-3-yl)methyl]- 4,6,7,9-tetrahydro-3-hydroxy-9,9- dimethyl-4-oxo- [Example 70]	2 to 100
Pyrimido[2,1-c][1,4]oxazine-2- carboxamide, N-(benzo[b]thien-3- ylmethyl)-4,6,7,9-tetrahydro-3- hydroxy-9,9-dimethyl-4-oxo- [Example 40]	2 to 100
Pyrimido[2,1-c][1,4]oxazine-2- carboxamide, 4,6,7,9-tetrahydro-3- hydroxy-9,9-dimethyl-N-[[5- methyl-2-(trifluoromethyl)-3- furanyl]methy]-4-oxo- [Example 42]	2 to 100
Pyrimido[2,1-c][1,4]oxazine-2- carboxamide, 4,6,7,9-tetrahydro-3- hydroxy-9,9-dimethyl-N-[(1- methyl-1H-pyrazol-3-yl)methyl]-4- oxo- [Example 72]	2 to 100
CC1=CC=C(CNC(=O)c2nc3n(c(=O)c2O)CCOC3(C)C)S1(=O)=O [Example 35, Pyrimido[2,1-c][1,4]oxazine-2-carboxamide, 4,6,7,9-tetrahydro-3-hydroxy-9,9-dimethyl-N-[(5-methyl-1,1-dioxido-2-thienyl)methyl]-4-oxo-]	≥ 1000
Pyrimido[2,1-c][1,4]oxazine-2- carboxamide, 4,6,7,9-tetrahydro-3- hydroxy-N-[3-(5-methoxy-1H- indol-3-yl)propyl]-9,9-dimethyl-4- oxo- [Example 52]	≥ 1000
Pyrimido[2,1-c][1,4]oxazine-2- carboxamide, N-[[3-(4- chlorophenyl)-5- isoxazolyl]methyl]-4,6,7,9- tetrahydro-3-hydroxy-9,9- dimethyl-4-oxo- [Example 45]	≥ 1000
Cc1cc(CNC(=O)c2nc3n(c(=O)c2O)CCOC3(C)C)nn1C(C)C [Example 19, Pyrimido[2,1-c][1,4]oxazine-2-carboxamide, 4,6,7,9-tetrahydro-3-hydroxy-9,9-dimethyl-N-[[5-methyl-1-(1-methylethyl)-1H-pyrazol-3-yl]methyl]-4-oxo-]	2 to 100
Cc1cc(CNC(=O)c2nc3n(c(=O)c2O)CCOC3(C)C)nn1CCF [Example 20, Pyrimido[2,1-c][1,4]oxazine-2-carboxamide, N-[[1-(2-fluoroethyl)-5-methyl-1H-pyrazol-3-yl]methyl]-4,6,7,9-tetrahydro-3-hydroxy-9,9-dimethyl-4-oxo-]	2 to 100
Pyrimido[2,1-c][1,4]oxazine-2- carboxamide, N-[(4-chloro-1- ethyl-1H-pyrazol-5-yl)methyl]- 4,6,7,9-tetrahydro-3-hydroxy-9,9- dimethyl-4-oxo- [Example 71]	100 to 1000
Cc1cc(CNC(=O)c2nc3n(c(=O)c2O)CCOC3(C)C)nn1C(F)F [Example 18, Pyrimido[2,1-c][1,4]oxazine-2-carboxamide, N-[[1-(difluoromethyl)-5-methyl-1H-pyrazol-3-yl]methyl]-4,6,7,9-tetrahydro-3-hydroxy-9,9-dimethyl-4-oxo-]	2 to 100
CC1(C)OCCn2c1nc(C(=O)NCc1ccc(C(=O)N3CCOCC3)o1)c(O)c2=O [Example 17, Pyrimido[2,1-c][1,4]oxazine-2-carboxamide, 4,6,7,9-tetrahydro-3-hydroxy-9,9-dimethyl-N-[[5-(4-morpholinylcarbonyl)-2-furanyl]methyl]-4-oxo-]	≥ 1000
CSc1ccc(CNC(=O)c2nc3n(c(=O)c2O)CCOC3(C)C)o1 [Example 87, 3-Hydroxy-9,9-dimethyl-N-((5-(methylthio)furan-2-yl)methyl)-4-oxo-4,6,7,9-tetrahydropyrimido[2,1-c][1,4]oxazine-2-carboxamide]	2 to 100
Pyrimido[2,1-c][1,4]oxazine-2- carboxamide, 4,6,7,9-tetrahydro-3- hydroxy-N-[2-(5-hydroxy-1H- indol-3-yl)ethyl]-9,9-dimethyl-4- oxo- [Example 51]	≥ 1000

Molecule	IC50 [nM]
CC1(C)OCCn2c1nc(C(=O)NCCc1c[nH]c3ccc(F)cc13)c(O)c2=O [Example 14, Pyrimido[2,1-c][1,4]oxazine-2-carboxamide, N-[2-(5-fluoro-1H-indol-3-yl)ethyl]-4,6,7,9-tetrahydro-3-hydroxy-9,9-dimethyl-4-oxo-]	2 to 100
Cc1cc(C#N)c(CNC(=O)c2nc3n(c(=O)c2O)CCOC3(C)C)s1 [Example 34, Pyrimido[2,1-c][1,4]oxazine-2-carboxamide, N-[(3-cyano-5-methyl-2-thienyl)methyl]-4,6,7,9-tetrahydro-3-hydroxy-9,9-dimethyl-4-oxo-]	2 to 100
Cc1csc(CNC(=O)c2nc3n(c(=O)c2O)CCCC32CCC2)c1 [Example 83, 3′-Hydroxy-N-((4-methyl-2-thienyl)methyl)-4′-oxo-7′,8′-dihydro-4′H,6′H-spiro[cyclobutane-1,9′-pyrido[1,2-a]pyrimidine]-2′-carboxamide]	2 to 100
Pyrimido[2,1-c][1,4]oxazine-2- carboxamide, N-[(4-chloro-3- methyl-5-isoxazolyl)methyl]- 4,6,7,9-tetrahydro-3-hydroxy-9,9- dimethyl-4-oxo- [Example 54]	100 to 1000
Pyrimido[2,1-c][1,4]oxazine-2- carboxamide, N-[(1-ethyl-5- methyl-1H-pyrazol-4-yl)methyl]- 4,6,7,9-tetrahydro-3-hydroxy-9,9- dimethyl-4-oxo- [Example 64]	100 to 1000
Cc1ccc(CNC(=O)c2nc3n(c(=O)c2O)CCN(C)C32CCC2)o1 [Example 77, 3′-Hydroxy-8′-methyl-N-((5-methyl-2-furyl)methyl)-4′-oxo-7′,8′-dihydro-4′H,6′H-spiro[cyclobutane-1,9′-pyrazino[1,2-a]pyrimidine]-2′-carboxamide]	2 to 100
CC1(C)OCCn2c1nc(C(=O)NCc1cc(C(=O)O)co1)c(O)c2=O [Example 75, 3-Furancarboxylic acid, 5-[[[(4,6,7,9-tetrahydro-3-hydroxy-9,9-dimethyl-4-oxopyrimido[2,1-c][1,4]oxazin-2-yl)carbonyl]amino]methyl]]	≥ 1000
Pyrimido[2,1-c][1,4]oxazine-2- carboxamide, N-[(1-ethyl-3- methyl-1H-pyrazol-5-yl)methyl]- 4,6,7,9-tetrahydro-3-hydroxy-9,9- dimethyl-4-oxo- [Example 46]	100 to 1000
Pyrimido[2,1-c][1,4]oxazine-2- carboxamide, 4,6,7,9-tetrahydro-3- hydroxy-9,9-dimethyl-4-oxo-N-[2- (2-thienyl)ethyl]- [Example 53]	100 to 1000
Cc1nc(C)c(CNC(=O)c2nc3n(c(=O)c2O)CCOC3(C)C)s1 [Example 24, Pyrimido[2,1-c][1,4]oxazine-2-carboxamide, N-[(2,4-dimethyl-5-thiazolyl)methyl]-4,6,7,9-tetrahydro-3-hydroxy-9,9-dimethyl-4-oxo-]	2 to 100
Pyrimido[2,1-c][1,4]oxazine-2- carboxamide, 4,6,7,9-tetrahydro-3- hydroxy-9,9-dimethyl-N-[(5- methyl-2-phenyl-2H-1,2,3-triazol- 4-yl)methy]-4-oxo- [Example 49]	≥ 1000
Cc1nc(CNC(=O)c2nc3n(c(=O)c2O)CCOC3(C)C)cs1 [Example 7, Pyrimido[2,1-c][1,4]oxazine-2-carboxamide, 4,6,7,9-tetrahydro-3-hydroxy-9,9-dimethyl-N-[(2-methyl-4-thiazolyl)methyl]-4-oxo-]	100 to 1000
CC1(C)OCCn2c1nc(C(=O)NCc1ccsc1)c(O)c2=O [Example 36, Pyrimido[2,1-c][1,4]oxazine-2-carboxamide, 4,6,7,9-tetrahydro-3-hydroxy-9,9-dimethyl-4-oxo-N-(3-thienylmethyl)-]	2 to 100
Cc1cc(CNC(=O)c2nc3n(c(=O)c2O)CCOC3(C)C)nn1C [Example 2, Pyrimido[2,1-c][1,4]oxazine-2-carboxamide, N-[(1,5-dimethyl-1H-pyrazol-3-yl)methyl]-4,6,7,9-tetrahydro-3-hydroxy-9,9-dimethyl-4-oxo-]	100 to 1000
CC1(C)OCCn2c1nc(C(=O)NCc1csc(-c3ccccc3)n1)c(O)c2=O [Example 3, Pyrimido[2,1-c][1,4]oxazine-2-carboxamide, 4,6,7,9-tetrahydro-3-hydroxy-9,9-dimethyl-4-oxo-N-[(2-phenyl-4-thiazolyl)methyl]-]	100 to 1000
Cc1cc(CNC(=O)c2nc3n(c(=O)c2O)CCOC3(C)C)nn1C(C)(C)C [Example 10, Pyrimido[2,1-c][1,4]oxazine-2-carboxamide, N-[[1-(1,1-dimethylethyl)-5-methyl-1H-pyrazol-3-yl]methyl]-4,6,7,9-tetrahydro-3-hydroxy-9,9-dimethyl-4-oxo-]	2 to 100

Test system: recombinant NL-Rluc virus
Test: Inhibition of HIV replication (NL-Rluc virus, luciferase)
Format: cell-based
Settings: NL-Rluc pseudotype virus; serum condition of tabulated values not stated (10% FBS, 15 mg/ml HSA/10% FBS or 40% human serum/5% FBS); read-out: Activity (EC50 class, inhibition of HIV replication)

Molecule	EC50 [nM]
Pyrimido[2,1-c][1,4]oxazine-2- carboxamide, N-[(2,5-dimethyl-3- furanyl)methyl]-4,6,7,9- tetrahydro-3-hydroxy-9,9- dimethyl-4-oxo- [Example 44]	3 to 100
Pyrimido[2,1-c][1,4]oxazine-2- carboxamide, N-(1,2-benzisoxazol- 3-ylmethyl)-4,6,7,9-tetrahydro-3- hydroxy-9,9-dimethyl-4-oxo- [Example 59]	100 to 1000
Pyrimido[2,1-c][1,4]oxazine-2- carboxamide, N-[(4-chloro-1- ethyl-1H-pyrazol-3-yl)methyl]- 4,6,7,9-tetrahydro-3-hydroxy-9,9- dimethyl-4-oxo- [Example 70]	> 1000
Pyrimido[2,1-c][1,4]oxazine-2- carboxamide, N-(benzo[b]thien-3- ylmethyl)-4,6,7,9-tetrahydro-3- hydroxy-9,9-dimethyl-4-oxo- [Example 40]	100 to 1000
Pyrimido[2,1-c][1,4]oxazine-2- carboxamide, 4,6,7,9-tetrahydro-3- hydroxy-9,9-dimethyl-N-[[5- methyl-2-(trifluoromethyl)-3- furanyl]methy]-4-oxo- [Example 42]	100 to 1000
Pyrimido[2,1-c][1,4]oxazine-2- carboxamide, 4,6,7,9-tetrahydro-3- hydroxy-9,9-dimethyl-N-[(1- methyl-1H-pyrazol-3-yl)methyl]-4- oxo- [Example 72]	100 to 1000
